Measured values from US12545685B2 (Daiichi Sankyo Company, Limited, priority 2011, dated 2026).
pIC50: −log10 of the molar value.

biological target: T1, Mdm2/p53 binding (GST-Mdm2 / His-p53) (Homo sapiens, UniProt Q00987, L33E); experiment: Mdm2/p53 binding assay (HTRF, His-p53 and GST-Mdm2); conditions: His-p53 (aa 1-132) and GST-Mdm2 (aa 25-108, L33E) 6.25 nM each; 25°C, 1 hour; values given as ranges
T1 construct: Mdm2 partial protein having Mdm2 amino acids at positions 25 to 108
Experimental: A protein dilution containing 6.25 nM each of His-p53 (fusion protein of a p53 partial protein having p53 amino acids at positions 1 to 132, with a histidine protein) and GST-Mdm2 (fusion protein of an Mdm2 partial protein having Mdm2 amino acids at positions 25 to 108 with leucine residue 33 substituted by glutamic acid, with glutathione transferase) proteins was prepared using a protein buffer solution (20 mM HEPES pH 7.4, 150 mM NaCl, 0.1% BSA). This protein dilution was added in an amount of 8 μl/well to a 384-well plate (384-well low volume NBC, Corning Inc., catalog No: 3676).
Next, a test compound was diluted with DMSO to produce a protein buffer solution containing 10% dilution, and this buffer solution was added in an amount of 4 μl/well to the plate.
Subsequently, a solution containing an XL665-labeled anti-His antibody (HTRF monoclonal anti-6HIS antibody labeled with XL665 (catalog No: 61HISXLB), Schering/Cisbio Bioassays) and a europium (Eu)-labeled anti-GST antibody (HTRF monoclonal anti-GST antibody labeled with europium cryptate, Schering/Cisbio Bioassays, catalog No: 61GSTKLB) at concentrations of 2.5 μg/ml and 0.325 μg/ml, respectively, was prepared using an antibody diluting buffer solution (20 mM HEPES pH 7.4, 150 mM NaCl, 0.1% BSA, 0.5 M KF). These dilutions were added in an amount of 8 μl/well (total reaction solution volume: 20 μl/well). Then the plate was incubated at 25° ° C. for 1 hour.
Time-resolved fluorescence at 620 and 665 nm was measured at an excitation wavelength of 320 nm using a plate reader (ARVOsx, PerkinElmer Co., Ltd. or PHERAstar, BMG LABTECH). Ratio (R) was calculated using the measured values (RFU 620 nm and RFU 665 nm) according to the following formula: […]
BI: measured value at 665 nm of reaction solution (only each buffer solution) nonsupplemented with each protein, the compound, and the antibodies
A and D: each measured value at 665 nm and 620 nm of reaction solution supplemented with only Eu-labeled anti-GST antibody solution
The R value calculated from the well supplemented with His-p53, GST-Mdm2, the test compound, and each antibody was defined as R (sample). The R value calculated from the well supplemented with His-p53, GST-Mdm2, and each antibody but without the test compound was defined as R (control). The R value calculated from the well supplemented with GST-Mdm2 the test compound, and each antibody but without His-p53 was defined as R (background). T/C was calculated from the formula shown below. An IC50 value for Mdm2/p53 binding was calculated by sigmoid fitting.

T1 sequence (Q00987 25-108 L33E): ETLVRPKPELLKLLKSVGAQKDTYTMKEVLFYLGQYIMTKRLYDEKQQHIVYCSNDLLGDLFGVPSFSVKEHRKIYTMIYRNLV

pIC50 | Compound
7.30 to 9.00 | CC1(C)CCC2(CC1)N[C@@H](C(=O)N[C@H]1CC[C@H](N3CC(O)C3)CC1)[C@H](c1cccc(Cl)c1F)[C@]21C(=O)Nc2cc(Cl)ccc21 (relative stereo) [Example 12, (3′R, 4′S,5′R)-6″-chloro-4′-(3-chloro-2-fluorophenyl)-N-[trans-4-(3-hydroxyazetidin-1-yl)cyclohexyl]-4,4-dimethyl-2″-oxo-1″,2″-dihydrodispiro[cyclohexane-1,2′-pyrrolidine-3′,3″-indole]-5′-carboxamide]
7.30 to 9.00 | CNC(=O)c1cc(Cl)cc([C@H]2[C@H](C(=O)N[C@H]3CC[C@H](O)CC3)NC3(CCC(C)(C)CC3)[C@@]23C(=O)Nc2cc(Cl)ccc23)c1 (relative stereo) [Example 21, (3′R, 4′R, 5′R)-6″-chloro-4′-[3-chloro-5-(methylcarbamoyl)phenyl]-N-(trans-4-hydroxycyclohexyl)-4,4-dimethyl-2″-oxo-1″,2″-dihydrodispiro[cyclohexane-1,2′-pyrrolidine-3′,3″-indole]-5′-carboxamide]
7.30 to 9.00 | CC1(C)CCC2(CC1)N[C@@H](C(=O)N[C@H]1CC[C@H](O)CC1)[C@H](c1cc(N)cc(Cl)c1)[C@]21C(=O)Nc2cc(Cl)ccc21 (relative stereo) [Example 36, (3′R, 4′R, 5′R)-4′-(3-amino-5-chlorophenyl)-6″-chloro-N-(trans-4-hydroxycyclohexyl)-4,4-dimethyl-2″-oxo-1″,2″-dihydrodispiro[cyclohexane-1,2′-pyrrolidine-3′,3″-indole]-5′-carboxamide]
7.30 to 9.00 | CC1(C)CCC2(CC1)N[C@@H](C(=O)N[C@H]1CC[C@H](c3noc(=O)[nH]3)CC1)[C@H](c1cccc(Cl)c1F)[C@]21C(=O)Nc2nc(Cl)ccc21 (relative stereo) [Example 49, (3′R, 4′S,5′R)-6″-chloro-4′-(3-chloro-2-fluorophenyl)-4,4-dimethyl-2″-oxo-N-[trans-4-(5-oxo-4,5-dihydro-1,2,4-oxadiazol-3-yl)cyclohexyl]-1″,2″-dihydrodispiro[cyclohexane-1,2′-pyrrolidine-3′,3″-pyrrolo[2,3-b]pyridine]-5′-carboxamide]
7.00 to 7.30 | O=C(N[C@H]1CC[C@H](O)CC1)[C@@H]1NC2(CC(CF)(CF)C2)[C@@]2(C(=O)Nc3cc(Cl)ccc32)[C@H]1c1cccc(Cl)c1F (relative stereo) [Example 121, (3′R, 4′S,5′R)-6″-chloro-4′-(3-chloro-2-fluorophenyl)-3,3-bis(fluoromethyl)-N-(trans-4-hydroxycyclohexyl)-2″-oxo-1″,2″-dihydrodispiro[cyclobutane-1,2′-pyrrolidine-3′,3″-indole]-5′-carboxamide]
6.30 to 7.00 | CN(C)C(=O)[C@H]1CC[C@H](NC(=O)[C@@H]2NC3(CC(CF)(CF)C3)[C@@]3(C(=O)Nc4cc(Cl)ccc43)[C@H]2c2cc(F)cc(Cl)c2)CC1 (relative stereo) [Example 168, (3′R, 4′R, 5′R)-6″-chloro-4′-(3-chloro-5-fluorophenyl)-N-[trans-4-(dimethylcarbamoyl)cyclohexyl]-3,3-bis(fluoromethyl)-2″-oxo-1″,2″-dihydrodispiro[cyclobutane-1,2′-pyrrolidine-3′,3″-indole]-5′-carboxamide]
7.30 to 9.00 | CC(O)[C@@H]1CC[C@@H](NC(=O)[C@@H]2NC3(CCC(C)(C)CC3)[C@@]3(C(=O)Nc4nc(Cl)ccc43)[C@H]2c2ccnc(Cl)c2F)CO1 (single isomer, unassigned) [Example 75]
7.30 to 9.00 | CC1(C)CCC2(CC1)N[C@@H](C(=O)N[C@H]1CO[C@H](CO)C(C)(O)C1)[C@H](c1ccnc(Cl)c1F)[C@]21C(=O)Nc2cc(Cl)ccc21 (single isomer, unassigned) [Example 85]
7.30 to 9.00 | CC1(C)CCC2(CC1)N[C@@H](C(=O)N[C@@H]1CC[C@@H](C(O)CO)OC1)[C@H](c1ccnc(Cl)c1F)[C@]21C(=O)Nc2cc(Cl)ccc21 (single isomer, unassigned) [Example 89]
7.30 to 9.00 | CC(O)[C@@H]1CC[C@@H](NC(=O)[C@@H]2NC3(CC(CF)(CF)C3)[C@@]3(C(=O)Nc4cc(Cl)ccc43)[C@H]2c2cccc(Cl)c2F)CO1 (single isomer, unassigned) [Example 146]
7.00 to 7.30 | CC(O)[C@@H]1CC[C@@H](NC(=O)[C@@H]2NC3(CC(CF)(CF)C3)[C@@]3(C(=O)Nc4cc(Cl)ccc43)[C@H]2c2cccc(Cl)c2F)CO1 (single isomer, unassigned) [Example 147]
7.00 to 7.30 | CC1(C)CCC2(CC1)N[C@@H](C(=O)N[C@@H]1CC[C@@H](C(C)(C)O)OC1)[C@H](c1ccnc(Cl)c1)[C@]21C(=O)Nc2cc(Cl)ccc21 [Example 10, (3′R, 4′R, 5′R)-6″-chloro-4′-(2-chloropyridin-4-yl)-N-[(3R,6S)-6-(1-hydroxy-1-methylethyl)tetrahydro-2H-pyran-3-yl]-4,4-dimethyl-2″-oxo-1″,2″-dihydrodispiro[cyclohexane-1,2′-pyrrolidine-3′,3″-indole]-5′-carboxamide]
7.00 to 7.30 | CC1(C)CCC2(CC1)N[C@@H](C(=O)N[C@H]1CC[C@H](O)CC1)[C@H](c1cccc(Cl)c1F)[C@]21C(=O)Nc2cc(C#N)ccc21 [Example 15, (3′R, 4′S,5′R)-4′-(3-chloro-2-fluorophenyl)-6″-cyano-N-(trans-4-hydroxycyclohexyl)-4,4-dimethyl-2″-oxo-1″,2″-dihydrodispiro[cyclohexane-1,2′-pyrrolidine-3′,3″-indole]-5%-carboxamide]
7.00 to 7.30 | CC1(C)CCC2(CC1)N[C@@H](C(=O)N[C@@H]1C=C[C@@H](CO)OC1)[C@H](c1cccc(Cl)c1F)[C@]21C(=O)Nc2cc(Cl)ccc21 [Example 19, (3′R,4′S,5′R)-6″-chloro-4′-(3-chloro-2-fluorophenyl)-N-[(3R,6S)-6-(hydroxymethyl)-3,6-dihydro-2H-pyran-3-yl]-4,4-dimethyl-2″-oxo-1″,2″-dihydrodispiro[cyclohexane-1,2′-pyrrolidine-3′,3″-indole]-5′-carboxamide]
7.00 to 7.30 | COC(=O)c1cc(Cl)cc([C@H]2[C@H](C(=O)N[C@@H]3CC[C@@H](CO)OC3)NC3(CCC(C)(C)CC3)[C@@]23C(=O)Nc2cc(Cl)ccc23)c1 [Example 22, 1,5-Anhydro-2-[({(3′R, 4′R, 5′R)-6″-chloro-4′-[3-chloro-5-(methoxycarbonyl)phenyl]-4,4-dimethyl-2″-oxo-1″,2″-dihydrodispiro[cyclohexane-1,2′-pyrrolidine-3′,3″-indole]-5′-yl}carbonyl)amino]-2,3,4-trideoxy-D-erythro-hexitol]
7.30 to 9.00 | CNC(=O)c1cc(Cl)cc([C@H]2[C@H](C(=O)N[C@@H]3CC[C@@H](CO)OC3)NC3(CCC(C)(C)CC3)[C@@]23C(=O)Nc2cc(Cl)ccc23)c1 [Example 27, 2, 5˜Anhydro-2-[({(3′R, 4′R, 5′R)-6″-chloro-4′-[3-chloro-5-(methylcarbamoyl)phenyl]-4,4-dimethyl-2″-oxo-1″,2″-dihydrodispiro[cyclohexane-1,2′-pyrrolidine-3′,3″-indole]-5′-yl}carbonyl)amino]-2,3,4-trideoxy-D-erythro-hexitol]
7.30 to 9.00 | CC1(C)CCC2(CC1)N[C@@H](C(=O)N[C@H]1CC[C@@](O)(CO)CC1)[C@H](c1cccc(Cl)c1F)[C@]21C(=O)Nc2cc(Cl)ccc21 [Example 33, (3′R, 4′S,5′R)-6″-chloro-4′-(3-chloro-2-fluorophenyl)-N-[trans-4-hydroxy-4-(hydroxymethyl)cyclohexyl]-4,4-dimethyl-2″-oxo-1″,2″-dihydrodispiro[cyclohexane-1,2′-pyrrolidine-3′,3″-indole]-5′-carboxamide]
7.00 to 7.30 | CC(=O)Nc1cc(Cl)cc([C@H]2[C@H](C(=O)N[C@H]3CC[C@H](O)CC3)NC3(CCC(C)(C)CC3)[C@@]23C(=O)Nc2cc(Cl)ccc23)c1 [Example 37, (3′R, 4′R, S′R)-4′-(3-acetamide-5-chlorophenyl)-6″-chloro-N-(trans-4-hydroxycyclohexyl)-4,4-dimethyl-2″-oxo-1″,2″-dihydrodispiro[cyclohexane-1,2′-pyrrolidine-3′,3″-indole]-5′-carboxamide]

Compound | pIC50
CC1(C)CCC2(CC1)N[C@@H](C(=O)N[C@H]1CC[C@H](c3nnco3)CC1)[C@H](c1ccnc(Cl)c1F)[C@]21C(=O)Nc2cc(Cl)ncc21 (relative stereo) [Example 190] | 7.00 to 7.30
